Molecules are shown by their SMILES. pIC50: −log10 of the molar value.

In this assay the target is T1, Human DGAT1 (Homo sapiens, UniProt O75907).
T1 construct: made in house; host or cells: Sf9 insect cells (baculovirus); microsomes
T1 sequence (O75907 1-488): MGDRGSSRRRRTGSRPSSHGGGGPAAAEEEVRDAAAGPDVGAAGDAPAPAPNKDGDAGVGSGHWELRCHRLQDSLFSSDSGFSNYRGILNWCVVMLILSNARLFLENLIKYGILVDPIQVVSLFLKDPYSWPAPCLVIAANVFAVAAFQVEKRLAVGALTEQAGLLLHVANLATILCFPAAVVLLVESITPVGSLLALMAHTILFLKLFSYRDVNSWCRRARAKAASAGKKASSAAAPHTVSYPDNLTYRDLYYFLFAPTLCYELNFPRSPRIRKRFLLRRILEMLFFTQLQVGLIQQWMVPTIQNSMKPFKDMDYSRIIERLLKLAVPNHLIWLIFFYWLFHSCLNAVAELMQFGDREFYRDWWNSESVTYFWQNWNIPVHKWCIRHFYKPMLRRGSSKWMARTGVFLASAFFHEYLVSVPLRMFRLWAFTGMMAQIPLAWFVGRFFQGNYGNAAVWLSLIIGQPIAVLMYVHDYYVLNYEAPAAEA
The assay can be described thus: hDGAT1 lipid extraction (LE) assay, inhibition of triacylglycerol product formation. In kind it is biochemical. To be noted: human DGAT1 microsomes from Sf9 cells; radiolabelled tridecanoylglycerol extraction. Here is the method: Human DGAT1 was expressed in Sf9 insect cells using a baculovirus expression system. Microsomes were prepared and used as enzyme for in vitro inhibition testing in either of two formats measuring production of coenzyme A or tridecanoylglycerol product, respectively. All steps were performed at 21-23° C. All data for DGAT1 inhibition by test compounds were collected under conditions where product formation was linear with reaction time.
For inhibition of triacylglycerol product formation, 11 uL reactions were run in white Polyplate-384 (PerkinElmer6007300) starting with a 30 minute pre-reaction incubation of 5 uL of 2.2× enzyme and 1 uL of 100% DMSO containing test compound or control compound, {4-[4-(4-amino-7,7-dimethyl-7H-pyrimido[4,5-b][1,4]oxazin-6-yl)phenyl]cyclohexyl}acetic acid. Some assays were performed with inclusion of didecanoylglycerol in the pre-reaction incubation of test compounds and enzyme. Reactions were initiated after 30 minute pre-reaction incubation via addition of 5 uL of 2.2× substrate. Final reaction conditions consisted of 50 mM HEPES pH 7.5, 2 mM MgCl2, 1 mM CHAPS, 25 uM didecanoylglycerol, 0.5 uM decanoyl-CoA, 0.3 nCi/uL [^14C]-decanoyl-CoA or 0.5 nCi/uL [^3H]-decanoyl-CoA, 0.05-4 ug/mL microsomal protein, and 1% DMSO. Following 60 minute reaction incubation, reactions were stopped with 40 uL of 45% isopropanol and 50 mM sodium carbonate in water and mixed. Extraction of tridecanoylglycerol product was accomplished via addition of 30 uL Microscint-E (Perkin Elmer) and 2 hours of incubation (sealed). Plates were read on a Microbeta Microplate reader. Inhibition was normalized to controls containing DMSO or 10 uM {4-[4-(4-amino-7,7-dimethyl-7H-pyrimido[4,5-b][1,4]oxazin-6-yl)phenyl]cyclohexyl}acetic acid. IC50s were fitted using GraphPad Prism to a sigmoidal dose response.
As usually defined, the pIC50 is −log10 of the IC50, conventionally taken in molar units. With `Nc1ncnc2c1C(=O)N(c1ccc3nc[nH]c(=O)c3c1)CCO2` [Example 98, 4-Amino-6-(4-oxo-3,4-dihydroquinazolin-6-yl)-7,8-dihydropyrimido[5,4-f][1,4]oxazepin-5(6H)-one], the pIC50 is 6.21.

On to `CCCn1cc(C(=O)C(F)(F)F)c2cc(N3CCOc4ncnc(N)c4C3=O)ccc21` [Example 63, 4-Amino-6-(1-propyl-3-(2,2,2-trifluoroacetyl)-1H-indol-5-yl)-7,8-dihydropyrimido[5,4-f][1,4]oxazepin-5(6H)-one], for which the pIC50 was 8.64.

For the compound `Nc1ncnc2c1C(=O)N(c1cnc3c(ccn3-c3cccc(C(F)(F)F)c3)c1)CCO2` [Example 81, 4-amino-6-{1-[3-(trifluoromethyl)phenyl]-1H-pyrrolo[2,3-b]pyridin-5-yl}-5H,6H,7H,8H-pyrimido[5,4-f][1,4]oxazepin-5-one], the pIC50 was 8.68.

For the origin of these results see patent publication US9540400B2, “Compounds as diacylglycerol acyltransferase inhibitors” (GlaxoSmithKline Intellectual Property (No. 2) Limited, priority 2011, dated 2017).
